The source of these data is patent US5420348A, “Urea derivatives and salts thereof” (Yamanouchi Pharmaceutical Co., Ltd., priority 1990, dated 1995).

Experiment [1] deals with acyl-CoA cholesterol acyltransferase (ACAT). The experiment is described as follows: Inhibitory action against acyl-CoA cholesterol acyltransferase (ACAT) activity in rabbit liver microsome. In kind it is biochemical. Conditions: 36 μM [1-14C]oleoyl CoA, pH 7.4, 37° C., 10 minutes, read-out: ACAT Inhibiting Activity IC50 (50% Inhibition Concentration). How it is done: i) ACAT enzyme inhibiting activity:
Inhibitory action against acyl-CoA cholesterol acyltransferase (ACAT) activity in rabbit liver microsome
The rabbit liver microsome was prepared as an enzyme fraction according to the method of Heider (J. G. Heider et al., J. of Lipid Res., Vol. 24, 1127-34 (1983)).
To the mixture of 0.154M phosphate buffer solution (pH 7.4), 2 mM dithiothreitol, 36 μM bovine serum albumin and 10-100 μg of microsome fraction was added liposome prepared by the method of Suckling (K. E. Suckling et al., FEBS Letters, Vol. 151, No. 111-116 (1983)) so that the proposition of liposome became 20% v/v. To the mixture was added 2% v/v of each concentration of test compound solution in dimethyl sulfoxide and the mixture was heated at 37° C. for 5 minutes. Then 36 μM oleoyl CoA containing 1^14 C-oleoyl CoA was added and the resultant mixture was heated at 37° C. for 10 minutes. The reaction was stopped by adding chloroform/methanol (=2/1). After stirring, cholesterol oleate extracted into the chloroform layer was separated by thin layer chromatography and the radioactivity was determined as ACAT activity.

Experiment [2] deals with serum total cholesterol. Nature of the experiment: Lipid-lowering activity in rats fed a diet containing 1.5% cholesterol and 0.5% bile acid. The experiment is classed as in vivo. Conditions: Rattus norvegicus; male Sprague-Dawley rats, 1.5% cholesterol/0.5% bile acid diet for 7 days, oral once a day during last 5 days, blood 2 hours after last administration; read-out: % Reduction in Serum Total Cholesterol ED50. From the text:
ii) Lipid-lowering activity:
Two hours after the last administration, blood samples were collected under ether anesthesia for determination of serum total cholesterol level and HDL-cholesterol level.

As to `Cc1cc(C)c(NC(=O)N(Cc2ccc3c(c2)Cc2ccccc2-3)C2CCCCCC2)c(C)c1` [Example 1, 1-Cycloheptyl-1-[(2-fluorenyl)methyl]-3-(2,4,6-trimethylphenyl)urea], in experiment [1], the IC50 is 73 nM. The ED50 in experiment [2] was found to be 3.8 mg/kg.

As for `Cc1cc(C)c(NC(=O)N(Cc2cc3ccccc3c3ccccc23)C2CCCCCC2)c(C)c1` [Example 10, 1-Cycloheptyl-1-[(9-phenanthrenyl)methyl]-3-(2,4,6-trimethylphenyl)urea], in experiment [1], the IC50 was found to be 61 nM. Also, the ED50 in experiment [2] is 1.7 mg/kg.
